# In patent US6140120A, “Regulated transcription of targeted genes and other biological events” (Board of Trustees of Leland Stanford Jr. University, priority 1998, dated 2000):
# Entries after “also recorded” stand apart in the source; their conditions may differ. Read-outs that look alike come from different tables or passages of the source.
# Key:
# [1] = system: cell culture; test: Toxicity in cell culture; assay type: cell-based
# [2] = system: myristoylated chimeric CD3/FKBP12 (MZF3E) receptor; test: NFAT-SEAP reporter through myristoylated chimeric CD3/FKBP12 (MZF3E) receptor; assay type: cell-based, human
# Text: In an illustrative case, this was accomplished by creating an intracellular receptor comprised of a small fragment of Src sufficient for posttranslational myristoylation (M), the cytoplasmic tail of zeta (Z; a component of the […] was also used), three consecutive FKBP12s (F3) and a flu epitope tag (E). Upon expressing the construct MZF3E (FIG. 18) in human (Jurkat) T cells, we confirmed that the encoded chimeric protein underwent FK1012-mediated oligomerization. The attendant aggregation of the zeta chains led to signaling via the endogenous TCR-signaling pathway (FIG. 15), as evidenced by secretion of alkaline phosphatase (SEAP) in response to an FK1012 (EC50 =50 nM). The promoter of the SEAP reporter gene was constructed to be transcriptionally activated by nuclear factor of activated T cells (NFAT), which is assembled in the nucleus following TCR-signaling.
# Specifically, 5 μg of the eukaryotic expression vector, pBJ5, containing a myristoylated chimeric receptor was co-transfected with 4 μg NFAT-SX. MZE, MZF1E, MZF2E and MZF3E contain 0,1, 2, or 3 copies of FKBP12, respectively, downstream of a myristoylated CD3 cytoplasmic domain (see FIG. 2). As a control, 5 μg of pBJ5 was used in a parallel transfection. After 24 hours, aliquots of each transfection containing approximately 10^5 cells were incubated with log dilutions of the drug, FK1012B, as indicated. As a positive control and to control for transfection efficiency, ionomycin (1 μm) and PMA (25 ng/ml) were added to aliquots from each transfection. After an additional 12 hour incubation, the supernatants were assayed for alkaline phosphatase activity and these activities were expressed relative to that of the positive control samples. […] Compare FIGS. 7 and 8.
# [3] = system: TAC/TAC/Z (TTZ) chimeric receptor; IL-2 enhancer/NFAT reporter in TAg Jurkat cells; test: SEAP reporter induction through chimeric receptor TAC/TAC/Z (TTZ); assay type: cell-based, human; conditions: 1 ng/ml FK506
# Experimental: As a positive control and to control for transfection efficiency, ionomycin (1 μm) and PMA (25 ng/ml) were added to aliquots from each transfection.
# [4] = system: chimeric FKBP12/CD3 (1FK3) receptor; test: NFAT-SEAP reporter through chimeric FKBP12/CD3 (1FK3) receptor; assay type: cell-based, human; conditions: 2 ng/ml FK506; FK1012A-stimulated
# Experimental: 5 μg of the eukaryotic expression vector, pBJ5, (based on pCDL-SR with a polylinker inserted between the 16S splice site and the poly A site), containing the chimeric receptor (1FK3), was co-transfected with 4 μg of the NFAT-inducible secreted alkaline phosphatase reporter plasmid, NFAT-SX. As a control, 5 μg of pBJ5 was used, instead of 1FK3/pBJ5, in a parallel transfection. After 24 hours, aliquots of each transfection containing approximately 10^5 cells were incubated with log dilutions of the drug, FK1012A, as indicated. As a positive control and to control for transfection efficiency, ionomycin (1 μm) and PMA (25 ng/ml) were added to aliquots from each transfection. After an additional 14 hour incubation, the supernatants were assayed for alkaline phosphatase activity and these activities were expressed relative to that of the positive control samples.
# [5] = system: calcineurin; conditions: complex with cyclophilin or FKBP12; cited from earlier work
# [6] = system: MZF1Eflu and MZF1Eflag; test: Co-immunoprecipitation of FKBP monomer constructs MZF1E; assay type: cell-based, human
# [7] = system: T cell receptor zeta chain / MZF3E in Jurkat cells; test: Recruitment of kinase activity to zeta-chain (in vitro kinase assay after immunoprecipitation) and tyrosine phosphorylation; assay type: cell-based, human; conditions: Jurkat cells stably transfected with MZF3E
# Text: FK1012-induced protein-tyrosine phosphorylation. The intracellular domains of the TCR, CD3 and zeta-chains interact with cytoplasmic protein tyrosine kinases following antigen stimulation. Specific members of the Src family (lck and/or fyn) phosphorylate one or more tyrosine residues of activation motifs within these intracellular domains (tyrosine activation motif, TAM). The tyrosine kinase ZAP-70 is recruited (via its two SH2 domains) to the tyrosine phosphorylated T-cell-receptor, activated, and is likely to be involved in the further downstream activation of phospholipase C. […] Tyrosine phosphorylation after treatment of cells with either anti-CD3 MAb or FK1012 was detected using monoclonal alpha-phosphotyrosine antibodies. Whole cell lysates were analysed at varying times after stimulation. […] The pattern consisted of a major band of 70 kDa, probably ZAP-70, and minor bands of 120 kDa, 62 kDa, 55 kDa and 42 kDa.
# [8] = system: MZF3E chimera in Jurkat T cells; test: Co-immunoprecipitation of MZF3Eflu with MZF3Eflag (induced dimerization); assay type: cell-based, human; conditions: 1 μM
# [9] = system: Fas-FKBP12 fusion protein (MFF3E) in Jurkat T cells; test: Cell death/apoptosis through Fas-FKBP12 fusion MFF3E in Jurkat T cells; assay type: cell-based; conditions: human Jurkat T cells
# Text: FIG. 21B depicts Immunphilin-Fas antigen chirneras and results of transient expression experiments in Jurkat T cells stably transformed with large T-antigen. Myr: the myristylation sequence taken from pp60^c-src encoding residues 1-14 (Wilson et al, Mol & Cell Biol 9 4 (1989): 1536-44); FKBP: human FKBP12; CypC: murine cyclophilin C sequence encoding residues 36-212 (Freidman et al, Cell 66 4 (1991): 799-806); Fas: intracellular domain of human Fas antigen encoding residues 179-319 (Oehm et al, J Biol Chem 267 15 (1992): 10709-15). Cells were electroporated with a plasmid encoding a secreted alkaline phosphatase reporter gene under the control of 3 tandem API promoters along with a six fold molar excess of the immunophilin fusion construct. After 24 h the cells were stimulated with PMA (50 ng/mL), which stimulates the synthesis of the reporter gene, and (CsA)2. At 48 h the cells were assayed for reporter gene activity. Western blots were performed at 24 h using anti-HA epitope antibodies.
# A chimeric cDNA has been constructed consisting of three FKBP12 domains fused to the cytoplasmic signaling domain of the Fas antigen (FIG. 20). […] Since the stable transfectants represent a homogeneous population of cells, they have been used to ascertain that death is due to apoptosis rather than necrosis (membrane blebbing, nucleosomal DNA fragmentation). […]
# [10] = system: ΔMFF3E; test: Apoptosis with non-myristoylated construct ΔMFF3E; assay type: cell-based; conditions: ΔMFF3E vs. myristoylated construct
# [11] = system: calcineurin-mediated TCR signaling; test: Inhibition of calcineurin-mediated TCR signaling / immunosuppression; assay type: cell-based; conditions: listed as FK1012s
# [12] = system: FKBP12-Fas antigen chimera in D10 T cells; test: Apoptosis through FKBP12-Fas chimera in D10 T cells; assay type: cell-based; conditions: murine D10 T cells
# Text: A chimeric cDNA has been constructed consisting of three FKBP12 domains fused to the cytoplasmic signaling domain of the Fas antigen (FIG. 20). […] Since the stable transfectants represent a homogeneous population of cells, they have been used to ascertain that death is due to apoptosis rather than necrosis (membrane blebbing, nucleosomal DNA fragmentation). However, the transient transfection protocol requires much less work and has therefore been used as an initial assay system, as described below.
# [13] = molecular target: FKBP12 (Homo sapiens, UniProt P62942); test: Binding of FK1012s, stoichiometry and Kd; conditions: 2:1 binding stoichiometry
# FKBP12, sequence (P62942 whole entry): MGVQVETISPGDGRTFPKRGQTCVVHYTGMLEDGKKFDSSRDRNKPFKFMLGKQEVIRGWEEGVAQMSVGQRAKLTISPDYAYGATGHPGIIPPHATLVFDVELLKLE
molecule,measurement,setting,value
CO[C@H]1C[C@@H](C)C/C(C)=C/[C@@H](CCOC(=O)NCc2ccccc2)C(=O)C[C@H](O)[C@@H](C)[C@@H](/C(C)=C/[C@@H]2CC[C@@H](O)[C@H](OC)C2)OC(=O)[C@@H]2CCCCN2C(=O)C(=O)[C@]2(O)O[C@H]1[C@@H](OC)C[C@H]2C [FK506-M],toxicity of monomeric ligand,[1]; in words,nontoxic
same,termination of FK1012-induced signaling,[2]; monomeric ligand,FK1012-induced signaling can be terminated
C=CC[C@@H]1/C=C(\C)C[C@H](C)C[C@H](OC)[C@H]2O[C@@](O)(C(=O)C(=O)N3CCCC[C@H]3C(=O)O[C@H](/C(C)=C/[C@@H]3CC[C@@H](O)[C@H](OC)C3)[C@H](C)[C@@H](O)CC1=O)[C@H](C)C[C@@H]2OC [FK506],response of NFAT reporter on addition of FK506,[3],dropped all activity due to NFAT to background levels
same,stimulation of NFAT reporter on addition of FK506,[4],dropped all stimulations to background levels
same,binding to / inactivation of calcineurin as immunophilin complex,[5],binds with high affinity to calcineurin
same,stimulation of NFAT reporter on addition of FK506,"[2]; 1 ng/ml FK506, FK1012B-stimulated",dropped all stimulations to near background levels
CO[C@H]1C[C@@H](C)C/C(C)=C/[C@@H](CCOC(=O)NCc2ccc(CNC(=O)OCC[C@@H]3/C=C(\C)C[C@H](C)C[C@H](OC)[C@H]4O[C@@](O)(C(=O)C(=O)N5CCCC[C@H]5C(=O)O[C@H](/C(C)=C/[C@@H]5CC[C@@H](O)[C@H](OC)C5)[C@H](C)[C@@H](O)CC3=O)[C@H](C)C[C@@H]4OC)cc2)C(=O)C[C@H](O)[C@@H](C)[C@@H](/C(C)=C/[C@@H]2CC[C@@H](O)[C@H](OC)C2)OC(=O)[C@@H]2CCCCN2C(=O)C(=O)[C@]2(O)O[C@H]1[C@@H](OC)C[C@H]2C [FK1012A],dimerization of FKBP monomer constructs,[6],also dimerized
same,recruitment of kinase activity to the zeta-chain,[7],recruitment of kinase activity to the zeta-chain
same,coimmunoprecipitation of MZF3Eflu with MZF3Eflag,[8],interacts with MZF3Eflu and is coimmunoprecipitated with MZF3Eflag
FK1012,induction of cell death / apoptosis,[9],FK1012-dependent apoptosis; also recorded: cell death of the Jurkat T-cell line
same,potency of mutated construct as inducer of FK1012-dependent apoptosis,[10],equally potent
same,inhibition of signaling,[11],does not inhibit signaling pathways; also recorded: do not inhibit calcineurin-mediated TCR signaling
same,toxicity,[1]; FK1012s: up to 0.1 mM in cell culture,nor toxic (up to 0.1 mM in cell culture)
same,induction of apoptosis,[12],FK1012-dependent apoptosis
same,EC50,"[2]; Jurkat T cells expressing MZF3E, read-out: EC50, secretion of alkaline phosphatase (SEAP)",50 nM
same,Kd,[13]; read-out: Kd (1),0.1 nM
same,Kd,[13]; read-out: Kd (2),0.8 nM
